In brackets after ≈: the same amount, converted by molar mass. Read-outs that look alike come from different tables or passages of the source.
Columns and labels:
[1] = tested on: C. difficile infection (CDI); settings: cited from earlier work
[2] = tested on: E. faecalis FA2–2; assay: MIC against wild-type E. faecalis FA2-2 (FabI and FabK); assay type: cell-based, Enterococcus faecalis; settings: E. faecalis FA2-2, possesses both FabI and FabK; for MIC: Enterococcus faecalis, read-out: MIC Ef wild-type
Method: (§1) Compounds were twofold serially diluted (100–0.2 μg/mL) across a 96-well plate in 100 μL of media used for the specific organism (Table S4). For anaerobes, plates were incubated anaerobically at 37 °C for 1 h and then inoculated with approximately 10^5 to 10^6 CFU/well. Plates were incubated at 37 °C for up to 48 h, and MICs were read by visual inspection.

[3] = tested on: F. nucleatum 23726; assay: MIC against F. nucleatum 23726; assay type: cell-based, Fusobacterium nucleatum; settings: three biological replicates; for MIC Fn 23726: F. nucleatum 23726 wild-type; for MIC: Fusobacterium nucleatum, 23726, F. nucleatum 23726 wild-type, read-out: MIC Fn 23726
Method: as §1

[4] = tested on: E. faecalis FA2–2ΔfabI; assay: MIC against E. faecalis FA2-2 fabK+ (ΔfabI, possesses only FabK); assay type: cell-based, Enterococcus faecalis; settings: for MIC: Enterococcus faecalis, read-out: MIC Ef fabK+, E. faecalis FA2-2 ΔfabI, possesses only FabK; for MIC Ef fabK+: E. faecalis FA2-2 ΔfabI, possesses only FabK
Method: as §1

[5] = tested on: E. faecalis FA2–2ΔfabK; assay: MIC against E. faecalis FA2-2 fabI+ (ΔfabK, possesses only FabI); assay type: cell-based, Enterococcus faecalis; settings: E. faecalis FA2-2 ΔfabK, possesses only FabI
Method: as §1

[6] = tested on: CdFabK; set-up: method as in PMID 37224699; settings: previously reported, cited from earlier work
[7] = molecular target: FnFabK (Fusobacterium nucleatum subsp. nucleatum, UniProt Q8RGV3); assay: biochemical; settings: for IC50: IC50 against FnFabK
Sequence of FnFabK (Q8RGV3 entry or part of it): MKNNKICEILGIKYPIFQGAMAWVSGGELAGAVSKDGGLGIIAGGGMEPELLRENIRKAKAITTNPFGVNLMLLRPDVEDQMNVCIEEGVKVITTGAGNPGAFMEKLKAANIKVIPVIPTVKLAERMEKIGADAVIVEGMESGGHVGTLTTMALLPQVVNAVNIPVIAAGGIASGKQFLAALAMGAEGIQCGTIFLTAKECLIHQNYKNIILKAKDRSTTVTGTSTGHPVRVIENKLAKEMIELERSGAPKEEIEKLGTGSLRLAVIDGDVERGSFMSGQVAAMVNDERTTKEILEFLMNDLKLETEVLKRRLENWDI
Method: Incubation lasted for a total of 10 min before the addition of crotonyl-CoA substrate, and the reaction was initiated by the addition of NADH for a final assay volume of 100 μL. The oxidation of NADH to NAD+ was measured by tracking fluorescence (340 nm/460 nm) with a Biotek Synergy H1 microplate reader in 15 s intervals for a total of 10 min to monitor the rate of reaction. The reaction was conducted in Greiner Bio-One 384-well μClear Bottom Polystyrene Microplates. […] Measurements were conducted in triplicate, and IC50’s were calculated via GraphPad Prism 9.1.2 using four-parameter logistic (Hill) curve analysis using equation Y = bottom + (top – bottom)/[1 + 10 (Log IC50 – X) × Hill Slope], where X is the logarithm of the dose and Y is the response. The assay concentrations of the cofactor, NADH, and substrate, crotonyl-CoA, were also determined via GraphPad Prism 9.1.2 using the substrate inhibition model to determine Km(app).

[8] = Cytotoxicity against Vero cells (resazurin viability); assay type: cell-based; settings: monkey, Vero epithelial cells, maximum tested concentration 100 μg/mL
Method: This was done as described[36] using colorectal carcinoma HCT116 and Vero epithelial cells cultured at 37 °C in 5% CO2 in Dulbecco’s modified Eagle’s medium (DMEM) with 4.5 g/L glucose and L-glutamine. The medium was supplemented with 10% v/v FetalGro (Rocky Mountain Biologicals). Approximately 25,000/well were aliquoted into black 96-well plates (Greiner Bio-One) and incubated overnight, before being resuspended in DMEM supplemented with 20% Gibco KnockOut Serum Replacement (Thermo Fisher Scientific). Compounds (100–1.6 μg/mL) were then added to the cells and incubated for 24 h at 37 °C and 5% CO2. Cell viability was analyzed using resazurin as described.[36]

[9] = tested on: F. nucleatum 23726 overexpression strains; assay: MIC against F. nucleatum 23726 transformed with empty vector, fabK or fabX under ATc-inducible promoter; assay type: cell-based, Fusobacterium nucleatum; settings: Fusobacterium nucleatum
Method: The transformation of F. nucleatum 23726 was performed via electroporation as previously described,[41] except that Columbia broth was used. (i) Antisense vector: F. nucleatum gene silencing vector, pHFK2, was developed by inserting the ATc inducible paired-termini antisense sequences from the clostridial vector pMSPT into pCWU6, a F. nucleatum vector.[56] pCWU6 was amplified by PCR (CloneAmp polymerase) and recombined with the BamHI and KpnI fragments of pMSPT containing the Tet promoter and paired-termini sequences.[26] Antisense nucleotides targeting either 50 bp upstream and downstream of the fabK start codon (FabKAS1) or 25 bp upstream and 75 bp downstream (FabKAS2) were cloned into SphI and XhoI restriction sites of pHFK2. (ii) Complementation vectors: these were generated by PCR amplifying the fabK promoter and gene and introducing KpnI and HindIII restriction sites at 5′ and 3′ ends, respectively. Purified PCR amplicons were inserted into the KpnI and HindIII sites of pCWU6. (iii) Overexpression vectors: the corresponding gene, fabK or fabX, was amplified via PCR, introducing HindIII or SacI restriction sites to the 5′ end, respectively. BamHI restriction sites were introduced to the 3′ end of both. Purified PCR amplicons were inserted into the respective restriction sites of pHFK2. (iv) Allelic exchange vector: vector, pCWU8-FabK, was generated using a previously described protocol,[41],[56] whereby 1-kb regions upstream and downstream of fabK were cloned into the suicide vector pCWU8 using a Gibson Assembly Cloning Kit (New England Biolabs). The recombinant vector was transformed into strain F. nucleatum 23726ΔgalK, and successful integrants were collected that were resistant to thiamphenicol (5 μg/mL). Since the suicide vector expresses GalK, which is toxic in the presence of 2-deoxy-D-galactose (2-DG), the compound 2-DG (0.25% w/v) was added to counter-select for mutants that underwent a second homologous recombination. Ten resulting colonies were then tested for deletion of fabK via PCR, using primers in Table S7. The experiment was independently performed twice for a total of 20 colonies screened for fabK deletion. All experiments were done anaerobically at 37 °C in tryptic soy broth supplemented with 1% w/v peptone and 0.25% w/v autoclaved L-cysteine hydrochloride (TSPC) or TSPC agar with thiamphenicol or 2-DG.
as §1

[10] = tested on: F. nucleatum 23726; assay: Growth in FAS-II inhibitor with or without exogenous fatty acids; assay type: cell-based, Fusobacterium nucleatum; settings: fatty acid mixture of Table S2
Method: To plates containing twofold serial dilutions of compounds, exponential phase cultures were added to a final OD600nm of 0.1. Plates containing F. nucleatum in Columbia broth were incubated at 37 °C inside of a Tecan Infinite 200 Pro, which was inside an anaerobic chamber; growth kinetics for Streptococcus spp. in brain heart infusion broth were done aerobically in the same Tecan instrument.

| SMILES | MIC Fn 23726 [3] | MIC Ef wild-type [2] | MIC Ef fabK+ [4] | MIC Ef fabI+ [5] | further results |
| --- | --- | --- | --- | --- | --- |
| O=C(NCc1nc(-c2ccc(Br)cc2)c[nH]1)Nc1ncc(Sc2ccccn2)s1 [Compound 296, 1-[4-(4-bromophenyl)-1H-imidazole-2-yl]methyl-3-[5-(pyridin-2-ylthio)thiazol-2-yl]urea] | 100 µg/mL (≈ 205 µM) |  |  |  | Efficacy in treating C. difficile infection (CDI) in mice [1]: efficacious; MIC [2]: 100 µg/mL (≈ 205 µM); MIC [3]: > 100 µg/mL; MIC [4]: < 0.1 µg/mL |
| O=C(NCc1nc(-c2ccc(Br)cc2)c[nH]1)Nc1nc2ccc(F)cc2s1 [Compound 670] | 100 µg/mL (≈ 224 µM) | 100 µg/mL (≈ 224 µM) | <0.1 µg/mL | 100 µg/mL (≈ 224 µM) |  |
| O=C(NCc1nc(-c2ccc(Br)cc2)c[nH]1)Nc1nc2ccc(Br)cc2s1 [Compound 671] | 25 µg/mL (≈ 49.3 µM) | 50 µg/mL (≈ 98.6 µM) | <0.1 µg/mL | 50 µg/mL (≈ 98.6 µM) |  |
| O=C(NCc1nc(-c2ccc(Br)cc2)c[nH]1)Nc1nc2c(F)cc(F)cc2s1 [Compound 674] | 100 µg/mL (≈ 215 µM) | 100 µg/mL (≈ 215 µM) | <0.1 µg/mL | 100 µg/mL (≈ 215 µM) |  |
| O=C(NCc1nc2ccccc2[nH]1)Nc1ncc(Sc2ccccn2)s1 [Compound 675] | 100 µg/mL (≈ 261 µM) | 100 µg/mL (≈ 261 µM) | 0.8 µg/mL (≈ 2.09 µM) | 100 µg/mL (≈ 261 µM) |  |
| O=C(NCc1nc(-c2ccccc2)n[nH]1)Nc1ncc(Sc2ccccn2)s1 [Compound 676] | 100 µg/mL (≈ 244 µM) | 100 µg/mL (≈ 244 µM) | 0.2 µg/mL (≈ 0.488 µM) | 100 µg/mL (≈ 244 µM) |  |
| O=C(NCc1nc(-c2ccc(Br)cc2)c[nH]1)Nc1ncc(Sc2ncccn2)s1 [Compound 679] | 6.3 µg/mL (≈ 12.9 µM) | 100 µg/mL (≈ 205 µM) | <0.1 µg/mL | 100 µg/mL (≈ 205 µM) |  |
| O=C(NCc1nc(-c2ccc(Br)cc2)c[nH]1)Nc1ncc(Sc2ccc3ccccc3n2)s1 [Compound 680] | 100 µg/mL (≈ 186 µM) | 100 µg/mL (≈ 186 µM) | <0.1 µg/mL | 100 µg/mL (≈ 186 µM) |  |
| O=C(NCc1nc(-c2ccc(Br)cc2)c[nH]1)Nc1ncc(Sc2ccc(Cl)cn2)s1 [Compound 682] | 3.1 µg/mL (≈ 5.94 µM) | 100 µg/mL (≈ 192 µM) | <0.1 µg/mL | 100 µg/mL (≈ 192 µM) |  |
| O=C(NCc1nc(-c2ccc(Br)cc2)c[nH]1)Nc1ncc(Sc2ncccc2C(F)(F)F)s1 [Compound 683] | 3.1 µg/mL (≈ 5.58 µM) | 100 µg/mL (≈ 180 µM) | <0.1 µg/mL | 100 µg/mL (≈ 180 µM) |  |
| O=C(NCc1nc(-c2ccc(Br)cc2)c[nH]1)Nc1ncc(Sc2ccc(C(F)(F)F)cn2)s1 [Compound 684] | 3.1 µg/mL (≈ 5.58 µM) | 100 µg/mL (≈ 180 µM) | <0.1 µg/mL | 100 µg/mL (≈ 180 µM) |  |
| O=C(NCc1nc(-c2ccc(Br)cc2)c[nH]1)Nc1nc2cc(Cl)ccc2s1 [Compound 689] | 6.3 µg/mL (≈ 13.6 µM) | 25 µg/mL (≈ 54 µM) | <0.1 µg/mL | 25 µg/mL (≈ 54 µM) |  |
| CCOc1ccc2sc(NC(=O)NCc3nc(-c4ccc(Br)cc4)c[nH]3)nc2c1 [Compound 690] | 25 µg/mL (≈ 52.9 µM) | 25 µg/mL (≈ 52.9 µM) | <0.1 µg/mL | 25 µg/mL (≈ 52.9 µM) |  |
| O=C(NCc1nc(-c2ccc(Br)cc2)c[nH]1)Nc1nc2ccccc2s1 [Compound 701] |  |  |  |  | IC50 against CdFabK, equivalent concentration [6]: 0.8 µg/mL; IC50 ([6]; read-out: IC50 against CdFabK): 1.88 µM; MIC [2]: 100 µg/mL (≈ 233 µM); IC50 ([7]; equivalent concentration, conversion of the μM value): 10.7 µM; IC50 ([7]; purified FnFabK, three replicates): 10.6 µM; Hill coefficient (FnFabK inhibition) ([7]; four-parameter logistic fit): 1.06; MIC [3]: 1.6 µg/mL (≈ 3.74 µM); MIC [4]: < 0.1 µg/mL |
| O=C(NCc1nc(-c2ccc(Br)cc2)c[nH]1)Nc1ncc(Sc2ccc(Br)cc2)s1 [Compound 702] | 100 µg/mL (≈ 177 µM) | 100 µg/mL (≈ 177 µM) | <0.1 µg/mL | 100 µg/mL (≈ 177 µM) |  |
| O=C(NCc1nc(-c2ccc(Br)cc2)c[nH]1)Nc1ncc(Sc2nc3ccccc3s2)s1 [Compound 703] | 100 µg/mL (≈ 184 µM) | 100 µg/mL (≈ 184 µM) | <0.1 µg/mL | 100 µg/mL (≈ 184 µM) |  |
| COc1cccc2c1C(=O)c1c(O)c3c(c(O)c1C2=O)C[C@@](O)(C(=O)CO)C[C@@H]3O[C@H]1C[C@H](N)[C@H](O)[C@H](C)O1 [doxorubicin, reference compound] |  |  |  |  | IC50 at 24 h [8]: 8.1 ± 1 µg/mL (≈ 14.9 µM) |
| C=C/C(C)=C/[C@@]1(C)SC(=O)C(C)=C1O [thiolactomycin, reference compound] |  |  |  |  | MIC ([9]; read-out: MIC, FabK overexpression, induced): 3.9 µg/mL; MIC ([9]; read-out: MIC, FabK overexpression, uninduced): 7.8 µg/mL; MIC ([9]; read-out: MIC, FabX overexpression, induced): 3.9 µg/mL; MIC ([9]; read-out: MIC, FabX overexpression, uninduced): 7.8 µg/mL; MIC ([9]; read-out: MIC, empty vector, induced): 7.8 µg/mL; MIC ([9]; read-out: MIC, empty vector, uninduced): 7.8 µg/mL; Effect of exogenous fatty acids on growth inhibition of F. nucleatum [10]: did not rescue |

Reference: article PMC11091888, “Evaluation of Fusobacterium nucleatum Enoyl-ACP Reductase (FabK) as a Narrow-Spectrum Drug Target” (ACS Infectious Diseases, 2024)
